Measured values reported in patent US11541049B2, “Tetrahydroisoquinoline derivatives, preparation process and use thereof” (SICHUAN KELUN-BIOTECH BIOPHARMACEUTICAL CO., LTD., priority 2018, dated 2023).
Converted amounts (≈) assume the structure as drawn.

Assays:
[1] = molecular target: human coagulation factor VIIa (Homo sapiens (Human), UniProt P08709); assay: Determination of inhibition of factor VIIa; type: biochemical
Experimental: Enzyme: human coagulation factor VIIa; manufacturer: Haematologic Technologies;
Substrate: Boc-VPR-AMC; R&D System;
Tissue factor: tissue factor F3; manufacturer: Sino Biological;
The test compounds were dissolved in assay buffer (50 mM Hepes, 150 mM NaCl, 5 mM CaCl2, pH 7.4) at a final concentration of 10 μM and 1 μM. Coagulation factor VIIa and tissue factor were mixed at an equimolar concentration. After incubation at 37° C. for 15 minutes, the test compound was further added. Incubation was conducted at room temperature for 10 minutes. Then the substrate (Boc-VPR-AMC) was added to initiate the reaction. For reading fluorescence signal value, enzyme kinetic mode was used. The wavelength of excitation light was 380 nm, and the wavelength of emission light was 460 nm. The IC50 was calculated in a similar manner to experimental Example 1.

[2] = molecular target: human coagulation factor Xa (Homo sapiens (Human), UniProt P00742); assay: Determination of inhibition of factor Xa; type: biochemical
Sequence of human coagulation factor Xa (P00742 whole entry, looked up): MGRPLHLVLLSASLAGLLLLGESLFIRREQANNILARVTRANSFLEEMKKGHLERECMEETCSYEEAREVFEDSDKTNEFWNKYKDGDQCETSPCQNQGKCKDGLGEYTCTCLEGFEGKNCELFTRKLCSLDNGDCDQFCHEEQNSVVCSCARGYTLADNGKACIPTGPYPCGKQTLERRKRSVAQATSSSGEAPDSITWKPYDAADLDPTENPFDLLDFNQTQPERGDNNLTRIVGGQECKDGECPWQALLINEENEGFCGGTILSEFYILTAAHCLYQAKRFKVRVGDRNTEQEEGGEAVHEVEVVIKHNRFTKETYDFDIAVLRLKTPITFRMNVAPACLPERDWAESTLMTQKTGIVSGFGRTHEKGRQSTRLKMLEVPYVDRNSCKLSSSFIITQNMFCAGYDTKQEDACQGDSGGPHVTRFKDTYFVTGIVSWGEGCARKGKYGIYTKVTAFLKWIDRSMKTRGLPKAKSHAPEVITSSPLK
Sequence of human coagulation factor Xa (P00742 whole entry, looked up): as above
Experimental: Enzyme: human coagulation factor Xa; manufacturer: R&D System;
Substrate: Mca-RPKPVE-Nval-WRK(Dnp)-NH2; manufacturer: R&D;
The test compounds were dissolved in assay buffer (50 mM Tris, 150 mM NaCl, 10 mM CaCl2, 0.05% Brij35, pH 7.5) at a final concentration of 10 μM and 1 μM. Coagulation factor Xa and test compound were added to the well plate, and incubation was conducted at room temperature for 10 minutes after mixed thoroughly. The substrate (Mca-RPKPVE-Nval-WRK(Dnp)-NH2) was added to initiate the reaction. For reading fluorescence signal value, enzyme kinetic mode was used. The wavelength of excitation light was 320 nm, and the wavelength of emission light was 400 nm. The IC50 was calculated in a manner similar to experimental Example 1.

rabbit plasma = assay: Effect on coagulation in vitro (aPTT and PT), rabbit plasma; conditions: final concentration 10NM (so in the source), n = 3
Text: (§1) aPTT reagent (purchased from Sysmex);
(§2) PT reagent (purchased from Sysmex);
(§3) The coagulation pathway includes the extrinsic coagulation pathway and the intrinsic coagulation pathway. The parameter associated with the extrinsic coagulation pathway is prothrombin time, expressed as PT; the parameter associated with the intrinsic coagulation pathway is activated partial thromboplatin time, expressed as aPTT.
(§4) After anticoagulation, blood of different species (rabbit, human) was subjected to centrifugation. The upper layer of plasma was collected and divided into several aliquots. The test compounds were added to make the final concentration of test compound to be 10NM. Incubation was conducted at 37° C. after mixed thoroughly. Then the samples were put into a coagulation analyzer (Sysmex CA1500, Sysmex, Japan) for the aPTT and PT assays. Blank plasma (without test compound) was used as a reference, and the ratio values of aPTT and PT of all samples and blank plasmas were analyzed, the results are shown in table 3.

human plasma = assay: Effect on coagulation in vitro (aPTT and PT), human plasma; conditions: final concentration 10NM (so in the source), n = 3
Text: as §1, §2, §3, §4

[3] = Solubility test in pH 7.4 buffer; type: physicochemical; conditions: buffer (pH 7.4), aqueous buffer, thermodynamic from solid, 25° C.
Experimental: The test compound was dissolved in a buffer (pH 7.4) at room temperature until the solution reached supersaturation. The solution was shaken at 25° C. by a constant temperature mixer for 4 hours, filtered through a 0.45 μm aqueous membrane filter, and the concentration was measured by UPLC. 1 mg of the test compound was accurately weighed, and dissolved in 10 mL volumetric flask as the reference substance. The reference substance was measured using the same process. The solubility of the test compound was calculated according to external standard process, and the results are shown in table 4.

[4] = Pharmacokinetics study in male SD rats, intravenous injection; type: in vivo
Experimental: (§5) Pharmacokinetics characteristics were examined by administering compound of the present disclosure and the reference compound (BMS-962212) to male SD rats through intravenous injection (IV). Blood was collected at various time points after administration. The blood was anticoagulated with EDTA-K2. Plasma samples were obtained by centrifugation within 30 min after blood collection, and retained at −80° C. The plasma samples were processed to precipitate the proteins and then analyzed by LC-MS/MS.
(§6) The pharmacokinetic parameters were calculated using WinNonlin 6.3 software by employing a non-compartmental model.

[5] = Pharmacokinetics study in Beagle dogs, intravenous injection; type: in vivo, Beagle dog
Experimental: as §5, with “properties” for “characteristics”, “Beagle dog” for “male SD rats”, “centrifugation,” for “centrifugation within 30 min after blood collection,”
as §6

[6] = Repeated dose toxicity study in SD rats, intravenous infusion, daily for 14 days; type: in vivo; conditions: rat, in vivo, daily for 14 days, SD rats, read-out: No-observed-adverse-effect level (NOAEL)
Experimental: The administration was repeated daily for 14 days, while clinical observation, body weight and food intake were recorded. […] Observation by gross anatomy and examination of histopathology were also conducted.

[7] = Blood exposure after intravenous administration in various animal species (summary); type: in vivo; conditions: rat, rabbit, dog
Experimental: as §5
as §5, with “properties” for “characteristics”, “rabbits” for “SD rats”, “centrifugation,” for “centrifugation within 30 min after blood collection,”
as §5, with “properties” for “characteristics”, “Beagle dog” for “male SD rats”, “Plasma samples were obtained by centrifugation within 30 min after blood collection, and retained at −80° C.” left out

in vivo = conditions: SD, rat, iv
Experimental: The clinical observation was carried out for 7 days after a single dose, and the body weight of the animals were measured. On the 8th day, blood samples were taken after anesthesia for detection of hematology, blood biochemistry, coagulation and other indicators. Observation was also conducted by gross anatomy.

[8] = male, SD, rat, plasma, rats, 1 mg/kg

Sequence of human coagulation factor VIIa (P08709 whole entry, looked up): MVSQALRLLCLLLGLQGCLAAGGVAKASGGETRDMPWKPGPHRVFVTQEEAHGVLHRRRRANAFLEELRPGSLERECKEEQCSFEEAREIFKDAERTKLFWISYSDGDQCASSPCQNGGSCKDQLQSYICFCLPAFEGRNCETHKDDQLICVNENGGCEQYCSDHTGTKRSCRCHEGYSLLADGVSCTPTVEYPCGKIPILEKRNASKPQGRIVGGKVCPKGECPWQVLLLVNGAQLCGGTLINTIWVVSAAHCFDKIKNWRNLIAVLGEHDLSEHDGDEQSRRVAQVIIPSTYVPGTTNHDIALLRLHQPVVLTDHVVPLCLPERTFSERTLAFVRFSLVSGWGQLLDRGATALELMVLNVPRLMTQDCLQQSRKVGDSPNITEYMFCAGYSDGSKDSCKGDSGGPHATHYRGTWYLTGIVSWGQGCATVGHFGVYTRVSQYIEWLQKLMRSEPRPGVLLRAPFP
Sequence of human coagulation factor VIIa (P08709 whole entry, looked up): as above
Sequence of human coagulation factor VIIa (P13726 whole entry partner, looked up): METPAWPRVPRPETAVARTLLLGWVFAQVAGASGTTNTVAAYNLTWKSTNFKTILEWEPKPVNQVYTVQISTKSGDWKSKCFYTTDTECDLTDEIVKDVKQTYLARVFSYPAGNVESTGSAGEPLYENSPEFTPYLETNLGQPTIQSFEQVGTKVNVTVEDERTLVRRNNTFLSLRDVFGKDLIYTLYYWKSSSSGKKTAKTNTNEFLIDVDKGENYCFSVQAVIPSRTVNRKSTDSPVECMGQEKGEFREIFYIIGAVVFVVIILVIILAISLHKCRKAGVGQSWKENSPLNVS

Structure (SMILES): N[C@@H](CCCCNC(=O)CN1CC=C(c2cccc3c2CCN(C(=O)[C@H]2CC(c4cccc(Cl)c4F)=NO2)[C@@H]3C(=O)Nc2ccc(C(=O)O)cc2)CC1)C(=O)O [Example 5, 4-((S)-5-(1-(2-(((S)-5-amino-5-carboxypentyl)amino)-2-oxoethyl)-1,2,3,6-tetrahydropyridin-4-yl)-2-((R)-3-(3-chloro-2-fluorophenyl)-4,5-dihydroisoxazole-5-carbonyl)-1,2,3,4-tetrahydroisoquinoline-1-carboxamido)benzoic acid]
- inhibitory effect on coagulation factor VIIa (in words) [1]: no significant inhibitory effect
- IC50 ([1]; tested at final concentration of 10 μM and 1 μM, with tissue factor): > 10 µM
- inhibitory effect on coagulation factor Xa (in words) [2]: no significant inhibitory effect
- IC50 ([2]; tested at final concentration of 10 μM and 1 μM): ~10 µM
- Ratio of PT to that of blank plasma (rabbit plasma): 1.00
- Ratio of aPTT to that of blank plasma (rabbit plasma): 1.84
- Ratio of PT to that of blank plasma (human plasma): 1.03
- Ratio of aPTT to that of blank plasma (human plasma): 2.95
- solubility at 4 h [3]: 10.8 mg/mL (≈ 13.7 mM)
- AUC(0-inf) [4, 8]: 2890 ± 473 ng·h/mL
- AUC(0-t) [4, 8]: 2890 ± 473 ng·h/mL
- Cmax [4, 8]: 2990 ± 629 ng/mL
- clearance [4, 8]: 5.88 ± 1.07 mL/min/kg
- half-life [4, 8]: 0.78 ± 0.06 h
- AUClast relative to that of the reference compound ([4]; rat plasma, 1 mg/kg vs 5 mg/kg reference, dosage normalized): 3.53 times
- T1/2 relative to that of the reference compound ([4]; rat, 1 mg/kg vs 5 mg/kg reference): 4.11 times
- Cmax relative to that of the reference compound ([4]; rat, 1 mg/kg vs 5 mg/kg reference, dosage normalized): 1.35 times
- AUClast relative to that of the reference compound ([5]; 0.5 mg/kg each): 20.38 times
- Cmax relative to that of the reference compound ([5]; 0.5 mg/kg each): 2.67 times
- T1/2 relative to that of the reference compound ([5]; 0.5 mg/kg each): 7.25 times
- AUC(0-inf) ([5]; dog, plasma, 0.5 mg/kg): 18100 ± 683 ng·h/mL
- AUC(0-t) ([5]; dog, plasma, 0.5 mg/kg): 17200 ± 370 ng·h/mL
- Cmax ([5]; dog, plasma, 0.5 mg/kg): 3950 ± 808 ng/mL
- Vd ([5]; dog, plasma, 0.5 mg/kg): 0.24 ± 0.02 L/kg
- clearance ([5]; dog, plasma, 0.5 mg/kg): 0.46 ± 0.02 mL/min/kg
- half-life ([5]; dog, plasma, 0.5 mg/kg): 6.02 ± 0.8 h
- apparent volume of distribution as share of that of the reference compound ([5]; same dosage 0.5 mg/kg): 34%
- NOAEL at 14 days [6]: 60 mg/kg
- exposure in blood relative to that of BMS-962212 [7]: 3-25 times
- MTD at 7 days (in vivo): ≥ 200 mg/kg
